Key:
[1] = test system: H3K27Ac; experiment: Intracellular H3K27Ac inhibitory activity in LK2 cells (Test Example 2); type: cell-based; conditions: Homo sapiens, LK-2, cultured with compound for 3 hours, read-out: Test Example 2 H3K27Ac Inhibition (LK2) IC50
Method in brief: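 Human squamous lung cancer LK2 cells (40000/well) cultured overnight at 37 °C, 5% CO2 before treatment. After paraformaldehyde fixation, peroxide quench and blocking, H3K27 acetylation detected with anti-acetyl-H3K27 rabbit mAb (4 °C overnight) and HRP secondary; chemiluminescent read-out.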

[2] = test system: LK2 cells; experiment: Cell growth inhibitory activity, LK2 cells (Test Example 3); type: cell-based; conditions: Homo sapiens, LK-2, 72 h, cultured for 3 days, CellTiter-Glo
Description: (§1) [Test Example 3] Evaluation of Cell Growth Inhibitory Activity
(§2) As a culture medium for each cell, a 10% FBS supplemented RPMI 1640 medium (for LK2 cells and TE-8 cells derived from human esophageal cancer) was used. LK2 cells were purchased from Human Science Research Resources Bank, and TE-8 cells were purchased from Riken Cell Bank. The compound of each of Examples 1 to 108b was prepared by dilution with Freedom EVO 150 (Tecan Trading AG) (4-fold diluted, 10 stages, 10 mM to 38 nM). The resultant was added to respective wells of a 384-well plate in an amount of 40 nL/well using Echo 555 (Labcyte Inc.). The LK2 or TE-8 cells were seeded in the plate at 400 cells/40 μL/well (day 0), and were cultured for 3 days. On the day of addition of the compound (day 0) and 3 days after the addition of the compound (day 3), an ATP measurement reagent of CellTiter-Glo (registered trademark) 2.0 Assay (Promega Corporation, #G9242) was added to each well in an amount of 10 μL/well, and the amount of luminescence of each well was measured using EnVision. Based on the amount of luminescence (C0) on the day of the addition of the compound, and the amounts of luminescence of a compound non-addition group (C3) and a compound addition group (T3) obtained after the 3-day culture of the compound, a cell survival rate was calculated in accordance with the following expression: Cell survival rate (%)=(T3−C0)/(C3−C0)×100
(§3) A concentration (GI50 value) of each compound at which the growth of the TE-8 or LK-2 cells was inhibited by 50% was calculated by semilogarithmically plotting the cell survival rate at each concentration and the compound concentration.

[3] = target: EP300 (Homo sapiens, UniProt Q09472); experiment: Histone acetyltransferase inhibitory activity against EP300 (Test Example 1); type: biochemical; conditions: 50 ng/mL EP300, 2 μM Acetyl-CoA, 100 nM Histone H4(1-25)-GSGSK (Biotin), 28° C. for 1 hour
Method in brief: (§4)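 Enzyme (50 ng/mL EP300 or 125 ng/mL CREBBP) incubated 1 h at 28° C with 2 μM acetyl-CoA, 100 nM biotinylated histone H4(1-25) peptide and 10 to 0.0006 μM compound in pH 8.0 Tris buffer with 330 nM trichostatin A, 1% DMSO. Reaction stopped with Lys-CoA; acetylation read by TR-FRET (Eu-anti pan-Ac/Sta-ULight) after overnight room-temperature incubation.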

[4] = target: CREBBP (Homo sapiens, UniProt Q92793); experiment: Histone acetyltransferase inhibitory activity against CREBBP (Test Example 1); type: biochemical; conditions: 125 ng/mL CREBBP, 2 μM Acetyl-CoA, 100 nM Histone H4(1-25)-GSGSK (Biotin), 28° C. for 1 hour
Method in brief: as §4

[5] = test system: TE-8 cells; experiment: Cell growth inhibitory activity, TE-8 cells (Test Example 3); type: cell-based; conditions: Homo sapiens, 72 h, cultured for 3 days, CellTiter-Glo
Description: as §1, §2, §3

Chain of CREBBP (Q92793 whole entry): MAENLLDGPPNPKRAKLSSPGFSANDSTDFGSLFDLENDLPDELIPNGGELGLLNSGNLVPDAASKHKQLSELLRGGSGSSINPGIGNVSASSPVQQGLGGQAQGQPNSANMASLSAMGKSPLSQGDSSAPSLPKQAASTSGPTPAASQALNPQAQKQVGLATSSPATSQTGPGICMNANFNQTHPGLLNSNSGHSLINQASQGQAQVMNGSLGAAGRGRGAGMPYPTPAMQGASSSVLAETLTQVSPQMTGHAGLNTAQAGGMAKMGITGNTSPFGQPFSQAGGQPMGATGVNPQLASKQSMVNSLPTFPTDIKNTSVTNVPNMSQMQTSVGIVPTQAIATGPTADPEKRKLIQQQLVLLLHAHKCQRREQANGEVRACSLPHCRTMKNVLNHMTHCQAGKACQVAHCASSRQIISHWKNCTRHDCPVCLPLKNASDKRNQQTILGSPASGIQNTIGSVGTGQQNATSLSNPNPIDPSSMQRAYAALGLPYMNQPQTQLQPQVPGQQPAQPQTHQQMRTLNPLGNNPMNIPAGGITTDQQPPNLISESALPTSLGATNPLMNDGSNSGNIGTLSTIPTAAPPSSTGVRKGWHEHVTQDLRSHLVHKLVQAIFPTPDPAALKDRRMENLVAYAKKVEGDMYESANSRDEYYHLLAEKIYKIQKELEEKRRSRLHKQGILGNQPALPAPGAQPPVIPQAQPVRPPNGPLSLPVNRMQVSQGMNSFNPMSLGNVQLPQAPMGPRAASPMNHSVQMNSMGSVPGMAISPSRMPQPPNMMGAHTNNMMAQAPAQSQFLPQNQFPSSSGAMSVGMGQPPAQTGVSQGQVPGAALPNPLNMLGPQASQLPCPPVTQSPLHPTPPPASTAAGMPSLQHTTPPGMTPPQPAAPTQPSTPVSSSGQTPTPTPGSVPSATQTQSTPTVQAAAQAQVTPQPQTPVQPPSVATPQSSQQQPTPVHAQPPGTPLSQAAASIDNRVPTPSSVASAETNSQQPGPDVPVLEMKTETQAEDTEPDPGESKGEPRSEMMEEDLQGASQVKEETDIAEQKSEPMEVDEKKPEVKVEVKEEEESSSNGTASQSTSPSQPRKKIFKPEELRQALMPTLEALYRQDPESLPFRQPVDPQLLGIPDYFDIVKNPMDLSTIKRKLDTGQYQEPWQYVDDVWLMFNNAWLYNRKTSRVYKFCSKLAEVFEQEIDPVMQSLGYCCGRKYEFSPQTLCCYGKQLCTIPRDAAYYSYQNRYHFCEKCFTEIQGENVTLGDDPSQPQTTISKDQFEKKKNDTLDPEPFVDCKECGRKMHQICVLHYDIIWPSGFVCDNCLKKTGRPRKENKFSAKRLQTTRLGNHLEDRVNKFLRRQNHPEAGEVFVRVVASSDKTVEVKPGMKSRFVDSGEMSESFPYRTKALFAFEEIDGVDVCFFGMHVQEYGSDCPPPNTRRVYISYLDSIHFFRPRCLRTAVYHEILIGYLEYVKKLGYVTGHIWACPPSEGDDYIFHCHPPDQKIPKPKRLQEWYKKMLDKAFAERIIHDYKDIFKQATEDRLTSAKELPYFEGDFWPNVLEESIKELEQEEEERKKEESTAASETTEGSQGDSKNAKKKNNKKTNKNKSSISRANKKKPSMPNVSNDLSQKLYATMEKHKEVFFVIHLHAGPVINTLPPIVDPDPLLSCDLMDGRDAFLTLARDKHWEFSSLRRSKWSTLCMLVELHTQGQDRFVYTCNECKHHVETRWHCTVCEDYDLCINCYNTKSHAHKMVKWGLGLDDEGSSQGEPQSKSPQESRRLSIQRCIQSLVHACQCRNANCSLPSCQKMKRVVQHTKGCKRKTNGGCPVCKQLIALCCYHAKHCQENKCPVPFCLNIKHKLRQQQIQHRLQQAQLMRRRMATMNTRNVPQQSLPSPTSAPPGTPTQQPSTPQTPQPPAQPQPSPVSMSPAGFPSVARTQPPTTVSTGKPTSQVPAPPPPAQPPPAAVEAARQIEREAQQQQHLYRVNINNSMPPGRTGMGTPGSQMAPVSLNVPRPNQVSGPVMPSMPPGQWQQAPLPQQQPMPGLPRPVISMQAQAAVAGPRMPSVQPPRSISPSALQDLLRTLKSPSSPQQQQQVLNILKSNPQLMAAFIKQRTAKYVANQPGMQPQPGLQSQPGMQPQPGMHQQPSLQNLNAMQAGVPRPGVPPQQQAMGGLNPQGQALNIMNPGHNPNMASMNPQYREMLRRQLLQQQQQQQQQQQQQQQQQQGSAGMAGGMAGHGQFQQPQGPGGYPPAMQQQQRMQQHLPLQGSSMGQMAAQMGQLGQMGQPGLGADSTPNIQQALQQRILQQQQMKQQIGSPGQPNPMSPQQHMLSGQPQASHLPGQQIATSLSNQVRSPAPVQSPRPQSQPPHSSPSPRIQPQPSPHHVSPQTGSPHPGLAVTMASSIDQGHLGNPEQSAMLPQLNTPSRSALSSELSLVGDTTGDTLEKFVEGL
Chain of EP300 (Q09472 whole entry): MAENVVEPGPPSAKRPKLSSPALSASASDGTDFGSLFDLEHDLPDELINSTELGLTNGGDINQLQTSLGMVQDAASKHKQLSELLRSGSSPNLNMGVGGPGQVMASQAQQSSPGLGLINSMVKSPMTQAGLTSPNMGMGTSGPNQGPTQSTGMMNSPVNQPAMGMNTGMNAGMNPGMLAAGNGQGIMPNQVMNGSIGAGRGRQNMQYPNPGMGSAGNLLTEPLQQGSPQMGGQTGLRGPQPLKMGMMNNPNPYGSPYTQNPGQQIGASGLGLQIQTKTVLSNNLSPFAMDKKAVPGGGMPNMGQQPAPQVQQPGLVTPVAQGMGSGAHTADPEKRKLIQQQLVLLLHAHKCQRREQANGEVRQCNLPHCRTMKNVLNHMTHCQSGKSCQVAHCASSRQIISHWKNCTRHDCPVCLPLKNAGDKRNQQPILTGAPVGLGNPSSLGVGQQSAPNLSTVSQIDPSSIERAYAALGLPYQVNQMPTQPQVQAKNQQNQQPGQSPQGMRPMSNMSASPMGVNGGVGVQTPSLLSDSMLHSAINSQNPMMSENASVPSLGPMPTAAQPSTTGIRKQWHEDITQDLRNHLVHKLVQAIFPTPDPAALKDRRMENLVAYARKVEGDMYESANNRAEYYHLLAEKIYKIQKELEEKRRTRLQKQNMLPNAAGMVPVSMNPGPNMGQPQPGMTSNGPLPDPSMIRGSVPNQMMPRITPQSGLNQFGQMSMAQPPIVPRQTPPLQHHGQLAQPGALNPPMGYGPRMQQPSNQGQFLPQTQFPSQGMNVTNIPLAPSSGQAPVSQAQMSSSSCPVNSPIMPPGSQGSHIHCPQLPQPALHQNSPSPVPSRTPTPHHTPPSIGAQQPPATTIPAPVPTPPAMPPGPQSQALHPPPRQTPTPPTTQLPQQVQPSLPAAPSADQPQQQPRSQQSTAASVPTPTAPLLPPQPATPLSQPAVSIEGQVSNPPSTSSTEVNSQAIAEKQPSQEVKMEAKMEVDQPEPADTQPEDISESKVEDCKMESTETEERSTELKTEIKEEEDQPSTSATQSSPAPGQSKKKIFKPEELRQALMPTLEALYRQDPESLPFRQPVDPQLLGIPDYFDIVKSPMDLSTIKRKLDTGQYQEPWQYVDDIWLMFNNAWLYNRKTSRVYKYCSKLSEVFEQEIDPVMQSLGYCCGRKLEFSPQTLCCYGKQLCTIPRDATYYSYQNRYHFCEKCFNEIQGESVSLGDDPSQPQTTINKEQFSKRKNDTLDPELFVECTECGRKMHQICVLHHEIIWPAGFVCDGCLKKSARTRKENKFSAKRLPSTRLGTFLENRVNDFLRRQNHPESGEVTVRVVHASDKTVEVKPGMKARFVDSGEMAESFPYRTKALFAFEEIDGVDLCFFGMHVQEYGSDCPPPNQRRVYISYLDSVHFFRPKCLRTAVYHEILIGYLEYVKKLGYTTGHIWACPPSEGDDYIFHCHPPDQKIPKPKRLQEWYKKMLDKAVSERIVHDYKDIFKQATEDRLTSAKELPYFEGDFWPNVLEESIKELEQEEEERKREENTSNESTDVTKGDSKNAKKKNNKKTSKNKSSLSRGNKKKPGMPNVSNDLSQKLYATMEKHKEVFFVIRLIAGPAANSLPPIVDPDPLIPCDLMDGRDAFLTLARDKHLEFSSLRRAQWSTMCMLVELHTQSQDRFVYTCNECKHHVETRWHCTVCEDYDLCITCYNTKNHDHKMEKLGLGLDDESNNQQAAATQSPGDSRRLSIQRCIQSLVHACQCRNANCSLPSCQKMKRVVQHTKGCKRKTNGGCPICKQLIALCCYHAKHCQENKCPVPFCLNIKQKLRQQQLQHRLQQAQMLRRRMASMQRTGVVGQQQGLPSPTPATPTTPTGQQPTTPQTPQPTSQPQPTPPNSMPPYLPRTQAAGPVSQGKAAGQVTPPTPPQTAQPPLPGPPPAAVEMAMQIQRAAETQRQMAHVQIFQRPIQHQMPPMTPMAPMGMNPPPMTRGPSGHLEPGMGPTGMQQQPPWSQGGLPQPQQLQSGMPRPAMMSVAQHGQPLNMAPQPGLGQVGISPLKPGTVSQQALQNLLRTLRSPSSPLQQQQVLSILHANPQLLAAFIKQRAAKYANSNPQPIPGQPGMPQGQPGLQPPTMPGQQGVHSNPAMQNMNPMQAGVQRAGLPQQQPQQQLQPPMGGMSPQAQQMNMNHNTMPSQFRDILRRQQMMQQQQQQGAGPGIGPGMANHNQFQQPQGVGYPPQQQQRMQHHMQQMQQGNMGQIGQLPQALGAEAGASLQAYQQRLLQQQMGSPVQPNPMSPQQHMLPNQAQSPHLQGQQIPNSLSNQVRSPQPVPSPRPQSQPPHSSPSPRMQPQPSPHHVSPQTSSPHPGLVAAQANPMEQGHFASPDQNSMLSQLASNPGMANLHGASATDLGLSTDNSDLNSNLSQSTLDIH

| SMILES | IC50 [1] | GI50 [2] | IC50 [3] | IC50 [4] | GI50 [5] |
| --- | --- | --- | --- | --- | --- |
| CC(C)(O)c1ccc(C2(C(=O)N3C[C@H](F)C[C@@H]3C(=O)Nc3ccc4[nH]ncc4n3)CCC(F)(F)CC2)cc1 [Example 98, (4R)-1-({4,4-Difluoro-1-[4-(2-hydroxypropan-2-yl)phenyl]cyclohexyl}carbonyl)-4-fluoro-N-1H-pyrazolo[4,3-b]pyridin-5-yl-D-prolinamide] | 62 nM | 267 nM | 76 nM | 202 nM | 331 nM |
| COc1ccc(C2(C(=O)N3CC(=O)C[C@@H]3C(=O)Nc3ccc4[nH]ccc4n3)CCC(F)(F)CC2)cc1 [Example 75, 1-{[4,4-Difluoro-1-(4-methoxyphenyl)cyclohexyl]carbonyl}-4-oxo-N-1H-pyrrolo[3,2-b]pyridin-5-yl-D-prolinamide] | 67 nM | 398 nM | 43 nM | 77 nM | 613 nM |
| O=C(Nc1ccc2[nH]ncc2n1)[C@H]1C[C@@H](F)CN1C(=O)C1(c2ccc(OCF)c(F)c2)CC(F)(F)C1 [Example 86] | 14 nM | 86.8 nM | 23 nM | 40 nM | 101 nM |
| O=C(Nc1ccc2[nH]ncc2n1)[C@H]1C[C@@H](F)CN1C(=O)C1(c2ccc(OCF)c(F)c2)CCC(F)(F)CC1 [Example 85, (4R)-1-({4,4-Difluoro-1-[3-fluoro-4-(fluoromethoxy)phenyl]cyclohexyl}carbonyl)-4-fluoro-N-1H-pyrazolo[4,3-b]pyridin-5-yl-D-prolinamide] | 29 nM | 206 nM | 31 nM | 53 nM | 412 nM |
| O=C(Nc1ccc2[nH]ncc2n1)[C@H]1C[C@@H](F)CN1C(=O)C1(c2ccc(NS(=O)(=O)c3ccccc3)cc2)CCC(F)(F)CC1 [Example 104, (4R)-1-[(4,4-Difluoro-1-{4-[(phenylsulfonyl)amino]phenyl}cyclohexyl)carbonyl]-4-fluoro-N-1H-pyrazolo[4,3-b]pyridin-5-yl-D-prolinamide] | 138 nM | 512 nM | 26 nM | 58 nM | 656 nM |
| COc1ccc(C2(C(=O)N(C)[C@H](C)C(=O)Nc3ccc4[nH]ncc4n3)CCCCC2)cc1 [Example 46] | 14 nM | 147 nM | 24 nM | 45 nM | 145 nM |
| CC(C)(C(=O)N1C[C@H](F)C[C@@H]1C(=O)Nc1ccc2[nH]ncc2n1)c1ccc(OC(F)(F)F)cc1 [Example 58] | 173 nM | 699 nM | 60 nM | 75 nM | 1280 nM |
| COc1ccc(C2(C(=O)N(C)[C@H](CCO)C(=O)Nc3ccc4[nH]ncc4n3)CCC(F)(F)CC2)cc1 [Example 69, 4,4-Difluoro-N-[(2R)-4-hydroxy-1-oxo-1-(1H-pyrazolo[4,3-b]pyridin-5-ylamino)butan-2-yl]-1-(4-methoxyphenyl)-N-methylcyclohexanecarboxamide] | 402 nM | 3120 nM | 157 nM | 239 nM | 4190 nM |
| CCOc1ccc(C2(C(=O)N3C[C@H](F)C[C@@H]3C(=O)Nc3ccc4[nH]ncc4n3)CC(F)(F)C2)cc1F [Example 88] | 53 nM | 201 nM | 37 nM | 80 nM | 351 nM |
| COc1ccc(C2(C(=O)N3CCOCC(Cc4cccc5[nH]ncc45)C3)CCCC2)cc1 (single isomer, unassigned) [Example 108b, [6-(1H-Indazol-4-ylmethyl)-1,4-oxazepan-4-yl][1-(4-methoxyphenyl)cyclopentyl]methanone] | 125 nM | 1090 nM | 50 nM | 83 nM | 1160 nM |
| COc1ccc(C2(C(=O)N3C[C@@H](O)C[C@@H]3C(=O)Nc3ccc4[nH]ncc4n3)CCCCC2)cc1 [Example 71, (4S)-4-Hydroxy-1-{[1-(4-methoxyphenyl)cyclohexyl]carbonyl}-N-1H-pyrazolo[4,3-b]pyridin-5-yl-D-prolinamide] | 139 nM | 797 nM | 99 nM | 94 nM | 1540 nM |
| O=C(Nc1ccc2[nH]ncc2n1)[C@H]1C[C@@H](F)CN1C(=O)C1(c2ccc(-c3ccccc3)c(F)c2)CCC(F)(F)CC1 [Example 94] | 123 nM | 625 nM | 109 nM | 305 nM | 586 nM |
| COc1ccc(C2(C(=O)N3C[C@H](F)C[C@@H]3C(=O)Nc3ccc4[nH]ncc4n3)CCCCC2)cn1 [Example 63] | 15 nM | 86 nM | 34 nM | 43 nM | 117 nM |
| O=C(Nc1ccc2[nH]ncc2n1)[C@H]1[C@H](O)[C@@H](F)CN1C(=O)C1(c2ccc(OC(F)F)cc2)CCC(F)(F)CC1 [Example 95] | 20 nM | 179 nM | 36 nM | 51 nM | 246 nM |
| COc1cccc(C2(C(=O)N3C[C@H](F)C[C@@H]3C(=O)Nc3ccc4[nH]ncc4n3)CCC(F)(F)CC2)c1 [Example 93, (4R)-1-{[4,4-Difluoro-1-(3-methoxyphenyl)cyclohexyl]carbonyl}-4-fluoro-N-1H-pyrazolo[4,3-b]pyridin-5-yl-D-prolinamide] | 311 nM | 746 nM | 56 nM | 76 nM | 1050 nM |
| [2H]C([2H])([2H])Oc1ccc(C2(C(=O)N3C[C@H](F)C[C@@H]3C(=O)Nc3ccc4[nH]ncc4n3)CCC(F)(F)CC2)cc1F [Example 91, (4R)-1-[(4,4-Difluoro-1-{3-fluoro-4-[(^2H3)methyloxy]phenyl}cyclohexyl)carbonyl]-4-fluoro-N-1H-pyrazolo[4,3-b]pyridin-5-yl-D-prolinamide] | 89 nM | 217 nM | 31 nM | 75 nM | 364 nM |
| COc1ccc(C2(C(=O)N3C[C@H](F)C[C@@H]3C(=O)Nc3ccc4[nH]ncc4n3)CC(C)(C)C2)cc1 [Example 57] | 53 nM | 310 nM | 48 nM | 76 nM | 473 nM |
| O=C(Nc1ccc2[nH]ncc2n1)[C@H]1C[C@@H](F)CN1C(=O)C1(c2ccc(OC(F)F)c(F)c2)CCC(F)(F)CC1 [Example 89] | 62 nM | 279 nM | 38 nM | 61 nM | 491 nM |
| COc1ccc(C2(C(=O)N3CCC[C@@H]3C(=O)Nc3ccc4[nH]ncc4c3)CCCC2)cc1 [Example 24, N-1H-Indazol-5-yl-1-{[1-(4-methoxyphenyl)cyclopentyl]carbonyl}-D-prolinamide] | 916 nM | 1620 nM | 254 nM | 128 nM | 4060 nM |
| O=C(Nc1ccc2[nH]c(CO)cc2n1)[C@H]1C[C@@H](F)CN1C(=O)C1(c2ccc(OC(F)F)cc2)CCC(F)(F)CC1 [Example 106, (4R)-1-({1-[4-(Difluoromethoxy)phenyl]-4,4-difluorocyclohexyl}carbonyl)-4-fluoro-N-[2-(hydroxymethyl)-1H-pyrrolo[3,2-b]pyridin-5-yl]-D-prolinamide] | 39 nM | 250 nM | 24 nM | 43 nM | 337 nM |
| O=C(Nc1ccc2[nH]ncc2n1)[C@H]1C[C@@H](F)CN1C(=O)C1(c2ccc(OCF)cc2)CCCC1 [Example 49] | 39 nM | 75 nM | 13 nM | 25 nM | 68.1 nM |
| COc1ccc(C2(C(=O)N3CS(=O)(=O)C[C@@H]3C(=O)Nc3ccc4[nH]ccc4n3)CCCC2)cc1 [Example 65, (4S)-3-{[1-(4-Methoxyphenyl)cyclopentyl]carbonyl}-N-(1H-pyrrolo[3,2-b]pyridin-5-yl)-1,3-thiazolidine-4-carboxamide 1,1-dioxide] | 9 nM | 79.2 nM | 18 nM | 37 nM | 151 nM |

Reference: US11274100B2, “EP300/CREBBP inhibitor” (Daiichi Sankyo Company, Limited, priority 2017, dated 2022)
